# Entries after “also recorded” stand apart in the source; their conditions may differ. Like-named read-outs stand apart in the source and are kept apart here.
# Tests used:
# Jurkat cells = experiment: Annexin V / viability dye flow cytometry apoptosis assay; assay type: cell-based; details: 25 μM; 0, 4, 8 and 12 h
# Description: In this assay, Jurkat cells were incubated with either the red or blue 1,4 benzoquinone at a concentration of 25 μM for 0, 4, 8 and 12 h. Cells were then stained with the Fixable Viability Dye eFluor 780 and FITC Annexin V and analyzed using flow cytometry. Positive staining with Annexin V is a marker of early apoptosis, and positive staining with both Annexin V and the viability dye is a marker of late apoptosis/necrosis. Double negatives are live cells. Cells were grouped into three categories (live, early apoptotic, and late apoptotic/necrotic). Data from three independent experiments are shown as mean±SEM (standard error of mean).
# Staphylococcus aureus = experiment: Time-kill assay; assay type: cell-based; details: for killing of S. aureus: at their MICs
# [1] = intratracheal treatment of healthy mice, lung histology; assay type: in vivo; details: 8 μg intratracheally for one month
# Description: FIGS. 21C-21F illustrate representative micrographs of lung (hematoxylin-eosin staining, 250× magnification) from the untreated group (FIG. 21C) showing extensive areas of pneumonia (asterisk). […] A representative micrograph of a healthy mouse treated intratracheally for one month with 8 μg of the blue 1,4 benzoquinone is shown in FIG. 21E.
# The bactericidal activity of the blue compound was tested against progressive pulmonary tuberculosis using an experimental infection model in BALB/c mice. […] This same dose was administered intratracheally to healthy mice for one month, after which they were sacrificed, and their lungs examined.
# [2] = system: clinical isolates of methicillin-resistant S. aureus (MRSA); experiment: Minimum inhibitory concentration, Table 1, MRSA clinical isolates; assay type: cell-based, Staphylococcus aureus; as to sensitive/resistant (growth): key: S Sensitive (did not grow the crop); R resistant (bacterial growth)
# [3] = system: Mycobacterium tuberculosis H37Rv; experiment: microbe, parasite or virus in culture; assay type: cell-based; details: M. tuberculosis H37Rv, broth microdilution
# [4] = system: Mycobacterium tuberculosis MDR strain; experiment: colony-forming units after treatment at the MIC; assay type: cell-based
# [5] = system: Mycobacterium tuberculosis; assay type: cell-based; details: electron microscopy
smiles,measurement,setting,value
"COC1=CC(=O)C(SC)=C(SC)C1=O [blue 1,4 benzoquinone, 5-methoxy-2,3-bis(methylthio)cyclohexa-2,5-diene-1,4-dione]","apoptosis (Annexin V staining, loss of cell membrane asymmetry)",Jurkat cells,triggers apoptosis
same,Colony-forming Units (CFU),"Staphylococcus aureus; 0 hr incubation, 2 × MIC",339 Colony-forming units per plate
same,Colony-forming Units (CFU),"Staphylococcus aureus; 0 hr incubation, MIC",352 Colony-forming units per plate
same,Colony-forming Units (CFU),"Staphylococcus aureus; 6 hr incubation, 2 × MIC",21 Colony-forming units per plate
same,Colony-forming Units (CFU),"Staphylococcus aureus; 6 hr incubation, MIC",45 Colony-forming units per plate
same,Colony-forming Units (CFU),"Staphylococcus aureus; 12 hr incubation, 2 × MIC",2 Colony-forming units per plate
same,Colony-forming Units (CFU),"Staphylococcus aureus; 12 hr incubation, MIC",1 Colony-forming units per plate
same,Colony-forming Units (CFU),"Staphylococcus aureus; 24 hr incubation, 2 × MIC",0 Colony-forming units per plate
same,Colony-forming Units (CFU),"Staphylococcus aureus; 24 hr incubation, MIC",2 Colony-forming units per plate
same,killing of S. aureus,Staphylococcus aureus; in 6 h,90%
same,killing of S. aureus,Staphylococcus aureus; in 24 h,99.9%
same,pulmonary histology of healthy mice,[1],"The pulmonary histology is normal, with the exception of occasional mild inflammatory infiltrates found around venules; also recorded: only minor inflammatory infiltrates found around the venules"
same,lung fibrosis in healthy mice,[1]; trichrome Masson staining,No fibrosis was seen
same,MIC,"[2]; Staphylococcus aureus, MRSA",> 64 µg/mL
same,MIC,[2]; strain 01 2075,>64 µg/mL
same,sensitive/resistant (growth),"[2]; strain 01 2075, 0.5 μg/ml",R
same,sensitive/resistant (growth),"[2]; strain 01 2075, 1 μg/ml",R
same,sensitive/resistant (growth),"[2]; strain 01 2075, 2 μg/ml",R
same,sensitive/resistant (growth),"[2]; strain 01 2075, 4 μg/ml",R
same,sensitive/resistant (growth),"[2]; strain 01 2075, 8 μg/ml",R
same,sensitive/resistant (growth),"[2]; strain 01 2075, 16 μg/ml",R
same,sensitive/resistant (growth),"[2]; strain 01 2075, 32 μg/ml",R
same,sensitive/resistant (growth),"[2]; strain 01 2075, 64 μg/ml",R
same,MIC,[2]; strain 01 2104,>64 µg/mL
same,sensitive/resistant (growth),"[2]; strain 01 2104, 0.5 μg/ml",R
same,sensitive/resistant (growth),"[2]; strain 01 2104, 1 μg/ml",R
same,sensitive/resistant (growth),"[2]; strain 01 2104, 2 μg/ml",R
same,sensitive/resistant (growth),"[2]; strain 01 2104, 4 μg/ml",R
same,sensitive/resistant (growth),"[2]; strain 01 2104, 8 μg/ml",R
same,sensitive/resistant (growth),"[2]; strain 01 2104, 16 μg/ml",R
same,sensitive/resistant (growth),"[2]; strain 01 2104, 32 μg/ml",R
same,sensitive/resistant (growth),"[2]; strain 01 2104, 64 μg/ml",R
same,sensitive/resistant (growth),"[2]; strain 09 3001, 0.5 μg/ml",R
same,sensitive/resistant (growth),"[2]; strain 09 3001, 1 μg/ml",R
same,sensitive/resistant (growth),"[2]; strain 09 3001, 2 μg/ml",R
same,sensitive/resistant (growth),"[2]; strain 09 3001, 4 μg/ml",R
same,sensitive/resistant (growth),"[2]; strain 09 3001, 8 μg/ml",R
same,sensitive/resistant (growth),"[2]; strain 09 3001, 16 μg/ml",R
same,sensitive/resistant (growth),"[2]; strain 09 3001, 32 μg/ml",R
same,sensitive/resistant (growth),"[2]; strain 09 3001, 64 μg/ml",R
same,MIC,[2]; strain 21 2001,>64 µg/mL
same,sensitive/resistant (growth),"[2]; strain 21 2001, 0.5 μg/ml",R
same,sensitive/resistant (growth),"[2]; strain 21 2001, 1 μg/ml",R
same,sensitive/resistant (growth),"[2]; strain 21 2001, 2 μg/ml",R
same,sensitive/resistant (growth),"[2]; strain 21 2001, 4 μg/ml",R
same,sensitive/resistant (growth),"[2]; strain 21 2001, 8 μg/ml",R
same,sensitive/resistant (growth),"[2]; strain 21 2001, 16 μg/ml",R
same,sensitive/resistant (growth),"[2]; strain 21 2001, 32 μg/ml",R
same,sensitive/resistant (growth),"[2]; strain 21 2001, 64 μg/ml",R
same,MIC,[3],4 µg/mL
same,killing in comparison to the inoculum bacteria concentration,[4],more than 90%
same,ultrastructural changes in Mycobacterium tuberculosis bacilli,[5],ultrastructural changes were promoted
same,ultrastructural changes in Mycobacterium tuberculosis bacilli,[5]; listed as blue benzoquinone,ultrastructural changes
"COC1=CC(=O)C(SC)=C(OC)C1=O [red 1,4 benzoquinone, 3,5-dimethoxy-2-(methylthio)cyclohexa-2,5-diene-1,4-dione]","apoptosis (Annexin V staining, loss of cell membrane asymmetry)",Jurkat cells,triggers apoptosis
same,Colony-forming Units (CFU),"Staphylococcus aureus; 0 hr incubation, 2 × MIC",311 Colony-forming units per plate
same,Colony-forming Units (CFU),"Staphylococcus aureus; 0 hr incubation, MIC",298 Colony-forming units per plate
same,Colony-forming Units (CFU),"Staphylococcus aureus; 6 hr incubation, 2 × MIC",9 Colony-forming units per plate
same,Colony-forming Units (CFU),"Staphylococcus aureus; 6 hr incubation, MIC",22 Colony-forming units per plate
same,Colony-forming Units (CFU),"Staphylococcus aureus; 12 hr incubation, 2 × MIC",0 Colony-forming units per plate
same,Colony-forming Units (CFU),"Staphylococcus aureus; 12 hr incubation, MIC",3 Colony-forming units per plate
same,Colony-forming Units (CFU),"Staphylococcus aureus; 24 hr incubation, 2 × MIC",0 Colony-forming units per plate
same,Colony-forming Units (CFU),"Staphylococcus aureus; 24 hr incubation, MIC",0 Colony-forming units per plate
same,killing of S. aureus,Staphylococcus aureus; in 6 h,90%
same,killing of S. aureus,Staphylococcus aureus; in 24 h,99.9%
same,MIC,"[2]; Staphylococcus aureus, MRSA",> 64 µg/mL
same,MIC,[2]; strain 01 2075,>64 µg/mL
same,sensitive/resistant (growth),"[2]; strain 01 2075, 0.5 μg/ml",R
same,sensitive/resistant (growth),"[2]; strain 01 2075, 1 μg/ml",R
same,sensitive/resistant (growth),"[2]; strain 01 2075, 2 μg/ml",R
same,sensitive/resistant (growth),"[2]; strain 01 2075, 4 μg/ml",R
same,sensitive/resistant (growth),"[2]; strain 01 2075, 8 μg/ml",R
same,sensitive/resistant (growth),"[2]; strain 01 2075, 16 μg/ml",R
same,sensitive/resistant (growth),"[2]; strain 01 2075, 32 μg/ml",R
same,sensitive/resistant (growth),"[2]; strain 01 2075, 64 μg/ml",R
same,MIC,[2]; strain 01 2104,>64 µg/mL
same,sensitive/resistant (growth),"[2]; strain 01 2104, 0.5 μg/ml",R
same,sensitive/resistant (growth),"[2]; strain 01 2104, 1 μg/ml",R
same,sensitive/resistant (growth),"[2]; strain 01 2104, 2 μg/ml",R
same,sensitive/resistant (growth),"[2]; strain 01 2104, 4 μg/ml",R
same,sensitive/resistant (growth),"[2]; strain 01 2104, 8 μg/ml",R
same,sensitive/resistant (growth),"[2]; strain 01 2104, 16 μg/ml",R
same,sensitive/resistant (growth),"[2]; strain 01 2104, 32 μg/ml",R
same,sensitive/resistant (growth),"[2]; strain 01 2104, 64 μg/ml",R
same,sensitive/resistant (growth),"[2]; strain 09 3001, 0.5 μg/ml",R
same,sensitive/resistant (growth),"[2]; strain 09 3001, 1 μg/ml",R
same,sensitive/resistant (growth),"[2]; strain 09 3001, 2 μg/ml",R
same,sensitive/resistant (growth),"[2]; strain 09 3001, 4 μg/ml",R
same,sensitive/resistant (growth),"[2]; strain 09 3001, 8 μg/ml",R
same,sensitive/resistant (growth),"[2]; strain 09 3001, 16 μg/ml",R
same,sensitive/resistant (growth),"[2]; strain 09 3001, 32 μg/ml",R
same,sensitive/resistant (growth),"[2]; strain 09 3001, 64 μg/ml",R
same,MIC,[2]; strain 21 2001,>64 µg/mL
same,sensitive/resistant (growth),"[2]; strain 21 2001, 0.5 μg/ml",R
same,sensitive/resistant (growth),"[2]; strain 21 2001, 1 μg/ml",R
same,sensitive/resistant (growth),"[2]; strain 21 2001, 2 μg/ml",R
same,sensitive/resistant (growth),"[2]; strain 21 2001, 4 μg/ml",R
same,sensitive/resistant (growth),"[2]; strain 21 2001, 8 μg/ml",R
same,sensitive/resistant (growth),"[2]; strain 21 2001, 16 μg/ml",R
same,sensitive/resistant (growth),"[2]; strain 21 2001, 32 μg/ml",R
same,sensitive/resistant (growth),"[2]; strain 21 2001, 64 μg/ml",R
same,MIC,[3],> 160 µg/mL

# Reference: patent US20210214303A1, “SCORPION VENOM BENZOQUINONE DERIVATIVES AND USES THEREOF” (priority 2018, published 2021)
